Results reported in patent publication US20210340178A1, “NONAPEPTIDE PREVENTING INCREASED HYPERPERMEABILITY OF VASCULAR ENDOTHELIUM” (FEDERALNOYE GOSUDARSTVENNOE BUDGETNOE UCHREZHDENIE …, priority 2018, published 2021).
“Also recorded” adds a separate entry of the source. Non-standard residues stand in square brackets, D forms with d. Residues, ends and D or L forms follow the SMILES beside them.

Tested on: EA.hy926 endothelial cell monolayer
Experiment: Thrombin-mediated FITC-dextran permeability through endothelial cell monolayer
Assay type: cell-based
Details: peptide 100 μM, 60 min preincubation; thrombin 100 nM; 70 kDa FITC-dextran
Experimental: FIG. 3. The thrombin-mediated FITC-dextran permeability through the EA.hy926 endothelial cell monolayer in the presence of myosin light chain kinase peptide inhibitors. Thrombin (100 nM) was added at 0 min, the cells were preincubated for 60 min with MLCK peptide inhibitors (100 μM). Data are presented as mean±SD, n=5. p<0.05 for all data points within the 20-180 min time course range as compared to the thrombin-stimulated control.
Effects of the claimed peptide (PIK7), the prototype (PIK2), and the analogue (MLC11-19) on the endothelial permeability was assayed in a model of FITC-dextran diffusion through the endothelial monolayer as described in Example 3.
Cells were grown in 24-well plates (Greiner Bio-one, Austria) equipped with special inserts to form inner (upper) chambers with a porous bottom (the pore diameter of 0.4 μm, pore density of 10^8/cm^2) in DMEM until monolayer was formed (3-4 days). Successful monolayer was checked by measuring FITC-dextran diffusion for 1 hour through inserts with cell monolayers vs inserts without cells (‘blank’ inserts). Experiments were performed in triplicates when tight monolayers were formed. On the day of experiment, the cells were deprived for 1 h in DMEM supplemented with MLCK inhibitors or without inhibitors (control). After deprivation, FITC-dextran was added to the upper compartment to a final concentration of 0.05 mg/ml. In 30 and 60 min, a 10-μ1 aliquot was withdrawn from the lower compartment and mixed with 100 μl phosphate buffered saline pH 7.3 in a 96-well plate to estimate the endothelial monolayer baseline permeability. […] During the next 3 hrs, every 30 min, aliquots were taken from the lower compartment, and intensity of FITC fluorescence was measured using a Victor 3X plate reader (Perkin Elmer, USA) to plot the dynamics of the FITC fluorescence changes.
As shown, 100 nM thrombin induces the endothelial hyperpermeability response as reflected by an increase in 70 kDa FITC-dextran diffusion through the endothelial monolayer and an incremental increase in the fluorescence in the lower compartment of the diffusion chamber. […]

Compound: C[C@H](NC(=O)[C@H](C)NC(=O)[C@H](CCCNC(=N)N)NC(=O)[C@@H](CCCCN)NC(=O)[C@@H](N)CCCCN)C(=O)N[C@@H](CCCNC(=N)N)C(=O)N[C@@H](C)C(=O)N[C@H](C(=O)N[C@@H](CO)C(N)=O)[C@@H](C)O [PIK7, H-Lys-D-Lys-Arg-Ala-Ala-Arg-Ala-Thr-Ser-NH2] (H-K[dK]RAARATS-NH2)
- effect on thrombin-induced FITC-dextran hyperpermeability: completely abolished the FITC-dextran hyperpermeability; also recorded: effectively abolished FITC-dextran hyperpermeability
